Data as given in patent US20240374730A1, “PHOTOACTIVATABLE PRODRUG NANOPARTICLES FOR COMBINED ANTI-ANGIOGENESIS AND PHOTODYNAMIC THERAPY” (The University of Hong Kong, priority 2021, published 2024).

Tests used:
[1] = test system: VEGF-stimulated human umbilical vein endothelial cells (HUVECs); assay: MTT cell viability of VEGF-stimulated HUVECs (dasatinib vs Di-DAS); format: cell-based; conditions: HUVEC, 20 ng/mL VEGF165, 48 h, read-out: 50% inhibition concentration (IC50)
Procedure: . Cells were incubated with 20 ng/mL VEGF165 and co-treated with dasatinib or Di-DAS at various concentrations for 48 h. FIG. 4B VEGF-stimulated HUVEC tube formation assay of Di-DAS-VER. […] FIG. 4C Quantitative HUVEC cell viability of Di-DAS-VER by MTT assay. […] MTT assay was performed at 24 h after treatment. […] . DAS: dasatinib; VER: verteporfin.
We tested the in vitro anti-angiogenic activity of DAS and Di-DAS in VEGF-stimulated human umbilical vein endothelial cells (HUVECs). […] . To assess therapeutic efficacy of combined anti-VEGF and PDT treatment, thiazolyl blue tetrazolium bromide (MTT) assay was conducted for measuring VEGF-stimulated HUVEC cell viability.

VEGF-stimulated HUVECs = assay: HUVEC scratch-wound healing assay; conditions: DAS group, irradiation not stated, 20 h
[2] = test system: VEGF-induced HUVEC tube formation; assay: VEGF-induced HUVEC tube formation assay; format: cell-based, human; conditions: DAS equivalent dose 0.05 μM, 20 ng/mL VEGF165, 4 h

| Molecule | IC50 [1] | scratch wound recovery (VEGF-stimulated HUVECs) | inhibition of VEGF-induced HUVEC differentiation and formation of vessel-like tubes [2] |
| --- | --- | --- | --- |
| Cc1nc(Nc2ncc(C(=O)Nc3c(C)cccc3Cl)s2)cc(N2CCN(CCO)CC2)n1 [DAS, dasatinib] | 910 nM | 11.35% | – |
| verteporfin | – | – | could not inhibit |
